Measurements from patent publication US20150164916A1, “ROFLUMILAST COMPOSITIONS FOR THE TREATMENT OF COPD” (Forest Laboratories Holdings Ltd., priority 2012, published 2015).
Values joined by “and” are separate entries in the source; they are usually repeats but may differ in a detail not shown here. Identical values can stand only once. Like-named read-outs stand apart in the source and are kept apart here.

How the values were obtained:
Type in all cases: cell-based, human
IL-8 release = test: LPS- or CSE-induced IL-8 release in isolated peripheral blood neutrophils (ELISA); details: for Maximal % Inhibition of IL-8 release / IC50: 6 h; for IC50: Homo sapiens, Neutrophil, read-out: -log IC50, inhibition of IL-8 release (converted)
Description: (§1) Neutrophils and monocytes were isolated from peripheral venous blood by standard laboratory procedures. In brief, peripheral venous blood was mixed with dextran 500 at 3% (in 0.9% saline) in a proportion of 2:1. This mixture was incubated at room temperature for 30 min until erythrocytes were sedimented. The upper phase was carefully collected and added on Ficoll-Paque Histopaque 1077 (Amershan Pharmacia Biotech, Barcelona, Spain) density gradient in a proportion of 3:1. The two phases generated were centrifuged at 150 g, 4° C. for 30 min. Thus, the interface was collected to isolate monocytes, and the pellet obtained (which is consisted a mixture of neutrophils and low proportion of residual erythrocytes and traces of eosinophils and basophils) was resuspended in an erythrocyte lysis buffer (Biolegend, UK) for 5 min in ice. Cell suspension was washed two times with phosphate buffer (PBS).
(§2) CSE was prepared as previously outlined (Milara et al.; Ortiz et al.). Briefly, the smoke of a research cigarette (2R4F; Tobacco Health Research, University of Kentucky, KY, USA) was generated by a respiratory pump (Apparatus Rodent Respirator 680; Harvard, Germany) through a puffing mechanism related to the human smoking pattern (3 puff/min; 1 puff 35 ml; each puff of 2 s duration with 0.5 cm above the filter) and was bubbled into a flask containing 25 ml of pre-warmed (37° C.) RPMI 1640 culture medium supplemented as describe above. The CSE solution was sterilized by filtration through a 0.22-μm cellulose acetate sterilizing system (Corning, N.Y.). The resultant CSE solution was considered to be 100% CSE and was used for experiments within 30 min of preparation. CSE 10% corresponds approximately to the exposure associated with smoking two packs per day (Su et al., 1998). The quality of the prepared CSE solution was assessed based on the absorbance at 320 nm, which is the specific absorption wavelength of peroxynitrite. Stock solutions with an absorbance value of 3.0±0.1 were used. To test for cytotoxicity from CSE, isolated neutrophils and monocytes were treated with CSE concentrations of up to 5% for 24.
(§3) Peripheral neutrophil cell suspension was adjusted to 500×10^3 cells per well in 24-well plates and incubated in RPMI culture medium for 1 h into the incubator at 37° C., 5% CO2. […] Both the stimulus and drug were remained together for 6 h. Supernatants were collected and centrifuged at 120 g for 5 min, and the free-cell supernatant was used to measure IL-8, MMP-9, IL-1β, GM-CSF and CCL-5.
(§4) IL-8 was determined by using commercially available enzyme-linked immunosorbent assay kit for IL-8 (R&D Systems, UK) according to the manufacturer's protocol. MMP-9, IL-1β, GM-CSF and CCL-5 were measured by LUMINEX technology according to the manufacturer's protocol.
(§5) Data were presented as mean±SEM. IC50 values were calculated for each drug and their combinations. Statistical analysis of results was carried out by analysis of variance (ANOVA) followed by Bonferroni test, by Student's t test, or by non-parametric tests as appropriate (GraphPad Software Inc, San Diego, Calif., USA). Significance was accepted when P<0.05. For clinical correlations of lung function and gene expression from neutrophils the non-parametric Spearman correlation analysis was carried out.

MMP-9 release = test: LPS- or CSE-induced MMP-9 release in isolated peripheral blood neutrophils (LUMINEX); details: for Maximal % Inhibition of MMP-9 release / IC50: 6 h; for IC50: Homo sapiens, Neutrophil, read-out: -log IC50, inhibition of MMP-9 release (converted)
Description: as §1, §2, §3, §4, §5

IL-1β release = test: LPS-induced IL-1β release in isolated peripheral blood neutrophils (LUMINEX); details: for IC50: Homo sapiens, Neutrophil
Description: as §1, §3, §4, §5

CCL-5 release = test: LPS-induced CCL-5 release in isolated peripheral blood neutrophils (LUMINEX); details: for IC50: Homo sapiens, Neutrophil
Description: as §1, §3, §4, §5

MKP1 = test: Real time RT-PCR of MKP1 mRNA in CSE-stimulated neutrophils from COPD patients; details: RNO 1 nM and 1 μM, DEX 1 μM, RNO 1 nM plus DEX 1 μM, NAC 1 mM for 1 h, then CSE 5% 6 h
Description: (§6) Neutrophils and monocytes were isolated from peripheral venous blood by standard laboratory procedures. In brief, peripheral venous blood was mixed with dextran 500 at 3% (in 0.9% saline) in a proportion of 2:1. This mixture was incubated at room temperature for 30 min until erythrocytes were sedimented. The upper phase was carefully collected and added on Ficoll-Paque Histopaque 1077 (Amershan Pharmacia Biotech, Barcelona, Spain) density gradient in a proportion of 3:1. The two phases generated were centrifuged at 150 g, 4° C. for 30 min. […]
(§7) CSE was prepared as previously outlined (Milara et al.; Ortiz et al.). […] The quality of the prepared CSE solution was assessed based on the absorbance at 320 nm, which is the specific absorption wavelength of peroxynitrite. Stock solutions with an absorbance value of 3.0±0.1 were used. […]
(§8) Total RNA was obtained from isolated neutrophils under basal conditions or after different drug and stimulation periods defined above by using TriPure® Isolation Reagent (Roche, Indianapolis, USA). […] Relative quantification of these transcripts was determined with the 2^−ΔΔCt method using glyceraldehyde phosphate dehydrogenase (GAPDH) as endogenous control (Applied Biosystems; 4352339E) and normalized to control group as previously described (Milara et al., 2009).
(§9) Then, mRNA was isolated and quantified for different genes.

MIF = test: Real time RT-PCR of MIF mRNA in CSE-stimulated neutrophils from COPD patients; details: RNO 1 nM and 1 μM, DEX 1 μM, RNO 1 nM plus DEX 1 μM, NAC 1 mM for 1 h, then CSE 5% 6 h
Description: as §6, §7, §8, §9

p-ERK1/2 = test: Western blot of ERK1/2 phosphorylation in CSE-stimulated neutrophils from COPD patients; details: RNO 1 nM and 1 μM, DEX 1 μM, RNO 1 nM plus DEX 1 μM, NAC 1 mM for 1 h, then CSE 5% 20 min
Description: as §6, §7
Western blot analysis was used to detect changes in p-ERK1/2 (42-44 kD). […] Cells were then centrifuged and the total protein was extracted using a lysis buffer consisting of a complete inhibitor cocktail plus 1 mM ethylenediaminetetraacectic acid (Roche Diagnostics Ltd, West Sussex, UK) with 20 mM Tris base, 0.9% NaCl, 0.1% Triton X-100, 1 mM dithiothreitol and 1 μg mL^−1 pepstatin A. The Bio-Rad assay (Bio-Rad Laboratories Ltd., Herts, UK) was used (following manufacturer's instructions) to quantify the level of protein in each sample to ensure equal protein loading. […]

PI3Kδ = test: Real time RT-PCR of PI3Kδ expression in CSE-stimulated neutrophils from COPD patients; details: RNO 1 nM and 1 μM, DEX 1 μM, RNO 1 nM plus DEX 1 μM, NAC 1 mM, CSE 5%
Description: as §6, §7, §8, §9

GCβ = test: Real time RT-PCR of GCβ mRNA in CSE-stimulated neutrophils from COPD patients; details: RNO 1 nM and 1 μM, DEX 1 μM, RNO 1 nM plus DEX 1 μM, NAC 1 mM, CSE 5%
Description: as §6, §7, §8, §9

HDAC2 = test: Real time RT-PCR of HDAC2 expression in CSE-stimulated neutrophils from COPD patients; details: RNO 1 nM and 1 μM, DEX 1 μM, RNO 1 nM plus DEX 1 μM, NAC 1 mM, CSE 5%
Description: as §6, §7, §8, §9

intracellular ROS = test: Intracellular reactive oxygen species (ROS) by flow cytometry in whole blood neutrophils from COPD patients; details: fMLP 1 μM or CSE 5%, 1 h, NAC 1 mM
Description: Intracellular reactive oxygen species (ROS) were measured by a flow cytometry assay using 2′,7′-dichlorodihydrofluorescein diacetate (H2DCF-DA, Molecular Probes, UK) as previously outlined (Milara et al., 2010). H2DCF-DA was added for 15 min before stimulus to a final concentration of 5 μM to measure intracellular ROS. The bacterial peptide fMLP was added as stimulus at 1 μM […] to generate intracellular ROS (Elbim et al., 2001). In other experiments, to reproduce in vivo conditions, CSE 5% was added to generate intracellular ROS. Intracellular ROS was measured using fresh whole blood from COPD patients. Blood neutrophils were selected using CD16-Alexa Fluor 647 antibody (molecular probes, UK) as neutrophil marker, and CD14-PerCEP-Cy5.5 mouse antihuman (molecular probes, UK) as monocyte marker in an Epics Profile II flow cytometer. A total of 1 ml of whole blood was pre-incubated at 37° C. for 30 min with RNO ([…] (1 mM) and H2DCF-DA followed by fMLP 1 μM or CSE 5% stimulation for another 1 h. Then erythrocytes were lysed using a commercial erythrocyte lysis buffer (Biolegend, UK) for 10 min. Fluorescence intensity was measured in the polymorphonuclear region of whole blood in an Epics Profile II flow cytometer. Results were expressed as DCF fluorescence in relative fluorescence units (RFU).
To this end, whole blood was stimulated with the bacterial peptide fMLP 1 μM or with CSE 5% in presence or absence of RNO or NAC for 1 h.

[1] = CSE 5%, neutrophils from COPD patients
[2] = CSE 5%, neutrophils from HEALTHY
[3] = LPS (1 μg/ml), neutrophils from COPD patients
[4] = LPS (1 μg/ml), neutrophils from HEALTHY
[5] = LPS (1 μg/ml), 6 h, neutrophils from COPD patients
[6] = LPS (1 μg/ml), 6 h, neutrophils from HEALTHY
[7] = COPD neutrophils stimulated with LPS or CSE, LY-294002 10 μM, NAC 1 mM

C[C@@H]1C[C@H]2[C@@H]3CCC4=CC(=O)C=C[C@]4(C)[C@@]3(F)[C@@H](O)C[C@]2(C)[C@@]1(O)C(=O)CO [DEX, dexamethasone]
Maximal % Inhibition of IL-8 release (IL-8 release; [1]): 20.6%
Maximal % Inhibition of IL-8 release (IL-8 release; [2]): 94.33 ± 21.7%
IC50 (IL-8 release; [1]): 0.0155 µM
IC50 (IL-8 release; [2]): 0.017 µM
IC50 (IL-8 release; [3]): 0.0427 µM
IC50 (IL-8 release; [4]): 0.0479 µM
Maximal % Inhibition of IL-8 release (IL-8 release; [3]): 15%
Maximal % Inhibition of IL-8 release (IL-8 release; [4]): 67.08 ± 11.41%
Maximal % Inhibition of MMP-9 release (MMP-9 release; [1]): 15.4% and 15.44 ± 6.95 %
Maximal % Inhibition of MMP-9 release (MMP-9 release; [2]): 83.9 ± 5.79%
IC50 (MMP-9 release; [1]): 0.00219 µM
IC50 (MMP-9 release; [2]): 0.00138 µM
IC50 (MMP-9 release; [3]): 0.0468 µM
IC50 (MMP-9 release; [4]): 0.00603 µM
Maximal % Inhibition of MMP-9 release (MMP-9 release; [3]): 8.8%
Maximal % Inhibition of MMP-9 release (MMP-9 release; [4]): 96.8 ± 5.1%
IC50 (IL-1β release; 6 h, LPS (1 μg/ml), 6 h, neutrophils from COPD patients, read-out: -log IC50, inhibition of IL-1β release (converted)): 0.0457 µM
IC50 (IL-1β release; 6 h, LPS (1 μg/ml), 6 h, neutrophils from HEALTHY, read-out: -log IC50, inhibition of IL-1β release (converted)): 0.0107 µM
IC50 (IL-1β release; LPS, neutrophils from COPD patients, read-out: -log IC50, IL-1β release (converted)): 0.0457 µM
IC50 (IL-1β release; LPS, neutrophils from healthy volunteers, read-out: -log IC50, IL-1β release (converted)): 0.0107 µM
Maximal % Inhibition of IL-1β release (IL-1β release; [5]): 77.16 ± 5.69%
Maximal % Inhibition of IL-1β release (IL-1β release; [6]): 79.58 ± 5.57%
IC50 (CCL-5 release; 6 h, LPS (1 μg/ml), 6 h, neutrophils from COPD patients, read-out: -log IC50, inhibition of CCL-5 release (converted)): 0.0324 µM
IC50 (CCL-5 release; 6 h, LPS (1 μg/ml), 6 h, neutrophils from HEALTHY, read-out: -log IC50, inhibition of CCL-5 release (converted)): 0.00724 µM
IC50 (CCL-5 release; LPS, neutrophils from COPD patients, read-out: -log IC50, CCL-5 release (converted)): 0.0324 µM
IC50 (CCL-5 release; LPS, neutrophils from healthy volunteers, read-out: -log IC50, CCL-5 release (converted)): 0.00724 µM
Maximal % Inhibition of CCL-5 release (CCL-5 release; [5]): 86.30 ± 10.16%
Maximal % Inhibition of CCL-5 release (CCL-5 release; [6]): 83.78 ± 8.64%

CC(=O)N[C@@H](CS)C(=O)O [NAC, N-acetyl-1-cysteine]
rescue of DEX anti-inflammatory effect on IL-8 release (IL-8 release; [7]): able to rescue DEX anti-inflammatory effect
rescue of DEX anti-inflammatory effect on MMP-9 release (MMP-9 release; [7]): able to rescue DEX anti-inflammatory effect
effect on CSE-induced down-regulation of MKP1 mRNA expression (MKP1): effectively increased
effect on CSE-induced increase of MIF mRNA expression (MIF): reduced
effect on CSE-induced phosphorylation of ERK1/2 (p-ERK1/2): inhibited
effect on CSE-induced PI3Kδ upregulation (PI3Kδ): inhibited
effect on CSE-induced GCβ upregulation (GCβ): inhibited
effect on CSE-induced HDAC2 downregulation (HDAC2): inhibited
effect on ROS generation in neutrophils (intracellular ROS): inhibited
